According to ChEMBL document CHEMBL1201862, “PubChem BioAssay data set” (2004):
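The compound was tested at five concentrations on cells cultured in 96-well plates, with a 48-hour exposure period. GI50 marks 50% less growth.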 Calls of active or inactive are those of the source. Cut-off read from the data, not from the text of the source: active = GI50 up to about 1.1 µM and inactive = higher.

Legend:
Assay in all cases: growth of human tumour cells (NCI), 48 h
MOLT-4 = system: MOLT-4
SN12C = system: SN12C
RXF 393 = system: RXF 393
DMS-114 = system: DMS-114
DMS-273 = system: DMS-273
HCT-116 = system: HCT-116
UACC-257 = system: UACC-257
HOP-18 = system: HOP-18
KM12 = system: KM12
U-251 = system: U-251
NCI-H460 = system: NCI-H460
LOX IMVI = system: LOX IMVI
HL-60 = system: HL-60
SK-MEL-2 = system: SK-MEL-2
SK-MEL-5 = system: SK-MEL-5
HOP-62 = system: HOP-62
SNB-78 = system: SNB-78
A498 = system: A498
HOP-92 = system: HOP-92
SF-268 = system: SF-268
DLD-1 = system: DLD-1
IGROV-1 = system: IGROV-1
SF-539 = system: SF-539
SNB-19 = system: SNB-19
HCT-15 = system: HCT-15
Malme-3M = system: Malme-3M
SK-OV-3 = system: SK-OV-3
OVCAR-5 = system: OVCAR-5
COLO 205 = system: COLO 205
TK-10 = system: TK-10
HT-29 = system: HT-29
RPMI-8226 = system: RPMI-8226
M14 = system: M14
SW-620 = system: SW-620
EKVX = system: EKVX
OVCAR-8 = system: OVCAR-8
KM-20L2 = system: KM-20L2
UO-31 = system: UO-31
CCRF-CEM = system: CCRF-CEM
NCI-H226 = system: NCI-H226
SF-295 = system: SF-295
SNB-75 = system: SNB-75
K562 = system: K562
NCI-H522 = system: NCI-H522
UACC-62 = system: UACC-62
HCC 2998 = system: HCC 2998
NCI-H23 = system: NCI-H23
OVCAR-3 = system: OVCAR-3
ACHN = system: ACHN
A549 = system: A549
LXFL 529 = system: LXFL 529
786-0 = system: 786-0
RXF 631 = system: RXF 631
XF498 = system: XF498
SK-MEL-28 = system: SK-MEL-28
CAKI-1 = system: CAKI-1
OVCAR-4 = system: OVCAR-4
SR = system: SR

`Cc1ccc(NC(=O)C2C(=O)N(c3ccc(C)c(C)c3)C(=O)/C2=N/O)cc1C` (centres undefined) was tested, and the GI50 (MOLT-4) was > 100 µM (inactive), the GI50 (SN12C) was > 100 µM (inactive) and the GI50 (RXF 393) was > 100 µM (inactive). For the same compound, the GI50 (DMS-114) was > 100 µM (inactive), the GI50 (DMS-273) was > 100 µM (inactive) and the GI50 (HCT-116) was > 100 µM (inactive). The GI50 (UACC-257) was > 100 µM (inactive), the GI50 (HOP-18) was > 100 µM (inactive) and the GI50 (KM12) was > 100 µM (inactive). For the same compound, the GI50 (U-251) was > 100 µM (inactive), the GI50 (NCI-H460) was 44.7 µM (inactive) and the GI50 (LOX IMVI) was 20.9 µM (inactive). For the same compound, the GI50 (HL-60) was > 100 µM (inactive), the GI50 (SK-MEL-2) was > 100 µM (inactive) and the GI50 (SK-MEL-5) was > 100 µM (inactive). The GI50 (HOP-62) was > 100 µM (inactive), the GI50 (SNB-78) was > 100 µM (inactive) and the GI50 (A498) was > 100 µM (inactive). The GI50 (HOP-92) was > 100 µM (inactive), the GI50 (SF-268) was > 100 µM (inactive) and the GI50 (DLD-1) was > 100 µM (inactive). For the same compound, the GI50 (IGROV-1) was > 100 µM (inactive), the GI50 (SF-539) was > 100 µM (inactive) and the GI50 (SNB-19) was > 100 µM (inactive). The GI50 (HCT-15) was greater than 100 µM, the GI50 (Malme-3M) was > 100 µM (inactive) and the GI50 (SK-OV-3) was > 100 µM (inactive). The GI50 (OVCAR-5) was > 100 µM (inactive), the GI50 (COLO 205) was > 100 µM (inactive) and the GI50 (TK-10) was > 100 µM (inactive). The GI50 (HT-29) was > 100 µM (inactive), the GI50 (RPMI-8226) was > 100 µM (inactive) and the GI50 (M14) was > 100 µM (inactive). The GI50 (SW-620) was 19.3 µM (inactive), the GI50 (EKVX) was > 100 µM (inactive) and the GI50 (OVCAR-8) was > 100 µM (inactive). For the same compound, the GI50 (KM-20L2) was > 100 µM (inactive), the GI50 (UO-31) was > 100 µM (inactive) and the GI50 (CCRF-CEM) was > 100 µM (inactive). The GI50 (NCI-H226) was > 100 µM (inactive), the GI50 (SF-295) was > 100 µM (inactive) and the GI50 (SNB-75) was > 100 µM (inactive). The GI50 (K562) was > 100 µM (inactive), the GI50 (NCI-H522) was > 100 µM (inactive) and the GI50 (UACC-62) was > 100 µM (inactive). The GI50 (HCC 2998) was > 100 µM (inactive), the GI50 (NCI-H23) was > 100 µM (inactive) and the GI50 (OVCAR-3) was > 100 µM (inactive). For the same compound, the GI50 (ACHN) was > 100 µM (inactive), the GI50 (A549) was > 100 µM (inactive) and the GI50 (LXFL 529) was > 100 µM (inactive). For the same compound, the GI50 (786-0) was 68.1 µM (inactive), the GI50 (RXF 631) was > 100 µM (inactive) and the GI50 (XF498) was > 100 µM (inactive). For the same compound, the GI50 (SK-MEL-28) was > 100 µM (inactive) and the GI50 (CAKI-1) was > 100 µM (inactive).

In the case of `c1ccc2c(c1)c1ccccc1c1n[se]nc21`, the GI50 (MOLT-4) is reported as > 100 µM (inactive), the GI50 (SN12C) is reported as > 100 µM (inactive) and the GI50 (RXF 393) is reported as 68.5 µM (inactive). For the same compound, the GI50 (DMS-114) was > 100 µM (inactive), the GI50 (DMS-273) was > 100 µM (inactive) and the GI50 (UACC-257) was > 100 µM (inactive). The GI50 (HOP-18) was < 0.01 µM (active), the GI50 (KM12) was > 100 µM (inactive) and the GI50 (U-251) was > 100 µM (inactive). For the same compound, the GI50 (NCI-H460) was 75.3 µM (inactive), the GI50 (LOX IMVI) was > 100 µM (inactive) and the GI50 (HL-60) was > 100 µM (inactive). For the same compound, the GI50 (SK-MEL-2) was > 100 µM (inactive), the GI50 (SK-MEL-5) was > 100 µM (inactive) and the GI50 (SNB-78) was > 100 µM (inactive). For the same compound, the GI50 (A498) was 19.5 µM (inactive), the GI50 (SF-268) was > 100 µM (inactive) and the GI50 (DLD-1) was > 100 µM (inactive). For the same compound, the GI50 (IGROV-1) was 36.1 µM (inactive), the GI50 (SF-539) was 34.6 µM (inactive) and the GI50 (SNB-19) was 35.6 µM (inactive). The GI50 (HCT-15) was greater than 100 µM, the GI50 (Malme-3M) was > 100 µM (inactive) and the GI50 (SK-OV-3) was 26 µM (inactive). The GI50 (OVCAR-5) was 35.6 µM (inactive), the GI50 (COLO 205) was > 100 µM (inactive) and the GI50 (TK-10) was 48.4 µM (inactive). For the same compound, the GI50 (HT-29) was 57 µM (inactive), the GI50 (RPMI-8226) was > 100 µM (inactive) and the GI50 (M14) was > 100 µM (inactive). For the same compound, the GI50 (SW-620) was > 100 µM (inactive), the GI50 (EKVX) was 87.9 µM (inactive) and the GI50 (OVCAR-8) was 50.2 µM (inactive). For the same compound, the GI50 (KM-20L2) was > 100 µM (inactive), the GI50 (UO-31) was 33.1 µM (inactive) and the GI50 (CCRF-CEM) was > 100 µM (inactive). For the same compound, the GI50 (SF-295) was 43.9 µM (inactive), the GI50 (SNB-75) was 28.1 µM (inactive) and the GI50 (OVCAR-4) was > 100 µM (inactive). For the same compound, the GI50 (K562) was > 100 µM (inactive), the GI50 (NCI-H522) was > 100 µM (inactive) and the GI50 (UACC-62) was > 100 µM (inactive). For the same compound, the GI50 (NCI-H23) was > 100 µM (inactive), the GI50 (ACHN) was 31.8 µM (inactive) and the GI50 (A549) was 52.6 µM (inactive). For the same compound, the GI50 (LXFL 529) was 21.8 µM (inactive), the GI50 (786-0) was 39 µM (inactive) and the GI50 (RXF 631) was 89.7 µM (inactive). The GI50 (XF498) was 31.5 µM (inactive), the GI50 (SK-MEL-28) was > 100 µM (inactive) and the GI50 (CAKI-1) was 36.5 µM (inactive).

`NC(=O)C12CC3CC(CC(Br)(C3)C1)C2` was tested, and the GI50 (SR) was > 100 µM (inactive), the GI50 (MOLT-4) was > 100 µM (inactive) and the GI50 (SN12C) was > 100 µM (inactive). For the same compound, the GI50 (DMS-114) was > 100 µM (inactive), the GI50 (DMS-273) was > 100 µM (inactive) and the GI50 (HCT-116) was > 100 µM (inactive). For the same compound, the GI50 (UACC-257) was > 100 µM (inactive), the GI50 (HOP-18) was > 100 µM (inactive) and the GI50 (KM12) was > 100 µM (inactive). For the same compound, the GI50 (U-251) was > 100 µM (inactive), the GI50 (NCI-H460) was > 100 µM (inactive) and the GI50 (LOX IMVI) was > 100 µM (inactive). For the same compound, the GI50 (HL-60) was > 100 µM (inactive), the GI50 (SK-MEL-5) was > 100 µM (inactive) and the GI50 (HOP-62) was > 100 µM (inactive). The GI50 (SNB-78) was > 100 µM (inactive), the GI50 (A498) was > 100 µM (inactive) and the GI50 (HOP-92) was > 100 µM (inactive). The GI50 (SF-268) was > 100 µM (inactive), the GI50 (DLD-1) was > 100 µM (inactive) and the GI50 (IGROV-1) was > 100 µM (inactive). For the same compound, the GI50 (SF-539) was > 100 µM (inactive), the GI50 (SNB-19) was > 100 µM (inactive) and the GI50 (HCT-15) was greater than 100 µM. For the same compound, the GI50 (SK-OV-3) was > 100 µM (inactive), the GI50 (OVCAR-5) was > 100 µM (inactive) and the GI50 (TK-10) was > 100 µM (inactive). The GI50 (HT-29) was > 100 µM (inactive), the GI50 (RPMI-8226) was > 100 µM (inactive) and the GI50 (M14) was > 100 µM (inactive). For the same compound, the GI50 (SW-620) was > 100 µM (inactive), the GI50 (EKVX) was > 100 µM (inactive) and the GI50 (OVCAR-8) was > 100 µM (inactive). For the same compound, the GI50 (KM-20L2) was > 100 µM (inactive), the GI50 (UO-31) was > 100 µM (inactive) and the GI50 (CCRF-CEM) was > 100 µM (inactive). For the same compound, the GI50 (SF-295) was > 100 µM (inactive), the GI50 (SNB-75) was 76.7 µM (inactive) and the GI50 (OVCAR-4) was > 100 µM (inactive). For the same compound, the GI50 (NCI-H522) was > 100 µM (inactive), the GI50 (UACC-62) was > 100 µM (inactive) and the GI50 (HCC 2998) was > 100 µM (inactive). The GI50 (NCI-H23) was > 100 µM (inactive), the GI50 (OVCAR-3) was > 100 µM (inactive) and the GI50 (ACHN) was > 100 µM (inactive). The GI50 (A549) was > 100 µM (inactive), the GI50 (LXFL 529) was > 100 µM (inactive) and the GI50 (786-0) was > 100 µM (inactive). The GI50 (RXF 631) was > 100 µM (inactive), the GI50 (XF498) was > 100 µM (inactive) and the GI50 (SK-MEL-28) was > 100 µM (inactive). The GI50 (CAKI-1) was > 100 µM (inactive).
